Reference: ChEMBL document CHEMBL1201862, “PubChem BioAssay data set” (2004)
The source made the active and inactive calls.

How the values were obtained:
Assay type in all cases: functional
[1] = target: Fibroblast growth factor receptor 1 (Homo sapiens, UniProt P11362)
[2] = target: Serine/threonine-protein kinase pim-1 (Homo sapiens, UniProt P11309)
[3] = target: Cyclin-dependent kinase 19 (Homo sapiens, UniProt Q9BWU1); experiment: Navigating the Kinome. Panel member name: CDC2L6
[4] = target: High affinity nerve growth factor receptor (Homo sapiens, UniProt P04629);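 further: NTRK1 tested as one member of a kinome-wide profiling panel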
[5] = target: Mitogen-activated protein kinase 8 (Homo sapiens, UniProt P45983);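 further: value comes from one member of a kinome-wide kinase profiling panel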
[6] = target: Receptor-type tyrosine-protein kinase FLT3 (Homo sapiens, UniProt P36888);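 further: FLT3 was tested as one member of a kinome-wide kinase panel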
[7] = target: Glycogen synthase kinase-3 beta (Homo sapiens, UniProt P49841);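 further: value comes from a broad kinome profiling panel, with GSK3B as the panel member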
[8] = target: ALK tyrosine kinase receptor (Homo sapiens, UniProt Q9UM73);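 further: ALK tested as one member of a kinase panel screen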
[9] = target: Dual specificity tyrosine-phosphorylation-regulated kinase 1B (Homo sapiens, UniProt Q9Y463); experiment: Navigating the Kinome. Panel member name: DYRK1B
[10] = target: Hepatocyte growth factor receptor (Homo sapiens, UniProt P08581);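 further: kinase panel profiling across the kinome, with MET as the panel member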

Serine/threonine-protein kinase pim-1, sequence (P11309 whole entry): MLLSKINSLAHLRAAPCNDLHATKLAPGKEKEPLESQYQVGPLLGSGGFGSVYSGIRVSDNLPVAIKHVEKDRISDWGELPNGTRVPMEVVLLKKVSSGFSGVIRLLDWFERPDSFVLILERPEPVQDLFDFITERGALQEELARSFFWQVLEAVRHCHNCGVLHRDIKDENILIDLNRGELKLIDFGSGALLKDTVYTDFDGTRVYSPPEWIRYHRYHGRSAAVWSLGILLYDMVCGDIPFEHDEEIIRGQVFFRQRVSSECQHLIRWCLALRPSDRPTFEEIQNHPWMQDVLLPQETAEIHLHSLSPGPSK
Glycogen synthase kinase-3 beta, sequence (P49841 whole entry): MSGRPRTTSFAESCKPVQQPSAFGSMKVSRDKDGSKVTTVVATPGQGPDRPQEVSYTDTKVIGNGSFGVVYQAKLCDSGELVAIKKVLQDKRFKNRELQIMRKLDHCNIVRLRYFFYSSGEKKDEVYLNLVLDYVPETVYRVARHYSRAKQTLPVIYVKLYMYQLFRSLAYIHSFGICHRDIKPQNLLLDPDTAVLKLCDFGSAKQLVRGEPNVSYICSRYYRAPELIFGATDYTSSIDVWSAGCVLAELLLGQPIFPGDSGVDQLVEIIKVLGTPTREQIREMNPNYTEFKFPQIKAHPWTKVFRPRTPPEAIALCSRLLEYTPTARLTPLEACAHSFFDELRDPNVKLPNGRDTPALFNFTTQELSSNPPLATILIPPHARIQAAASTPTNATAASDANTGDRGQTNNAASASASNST
Receptor-type tyrosine-protein kinase FLT3, sequence (P36888 whole entry): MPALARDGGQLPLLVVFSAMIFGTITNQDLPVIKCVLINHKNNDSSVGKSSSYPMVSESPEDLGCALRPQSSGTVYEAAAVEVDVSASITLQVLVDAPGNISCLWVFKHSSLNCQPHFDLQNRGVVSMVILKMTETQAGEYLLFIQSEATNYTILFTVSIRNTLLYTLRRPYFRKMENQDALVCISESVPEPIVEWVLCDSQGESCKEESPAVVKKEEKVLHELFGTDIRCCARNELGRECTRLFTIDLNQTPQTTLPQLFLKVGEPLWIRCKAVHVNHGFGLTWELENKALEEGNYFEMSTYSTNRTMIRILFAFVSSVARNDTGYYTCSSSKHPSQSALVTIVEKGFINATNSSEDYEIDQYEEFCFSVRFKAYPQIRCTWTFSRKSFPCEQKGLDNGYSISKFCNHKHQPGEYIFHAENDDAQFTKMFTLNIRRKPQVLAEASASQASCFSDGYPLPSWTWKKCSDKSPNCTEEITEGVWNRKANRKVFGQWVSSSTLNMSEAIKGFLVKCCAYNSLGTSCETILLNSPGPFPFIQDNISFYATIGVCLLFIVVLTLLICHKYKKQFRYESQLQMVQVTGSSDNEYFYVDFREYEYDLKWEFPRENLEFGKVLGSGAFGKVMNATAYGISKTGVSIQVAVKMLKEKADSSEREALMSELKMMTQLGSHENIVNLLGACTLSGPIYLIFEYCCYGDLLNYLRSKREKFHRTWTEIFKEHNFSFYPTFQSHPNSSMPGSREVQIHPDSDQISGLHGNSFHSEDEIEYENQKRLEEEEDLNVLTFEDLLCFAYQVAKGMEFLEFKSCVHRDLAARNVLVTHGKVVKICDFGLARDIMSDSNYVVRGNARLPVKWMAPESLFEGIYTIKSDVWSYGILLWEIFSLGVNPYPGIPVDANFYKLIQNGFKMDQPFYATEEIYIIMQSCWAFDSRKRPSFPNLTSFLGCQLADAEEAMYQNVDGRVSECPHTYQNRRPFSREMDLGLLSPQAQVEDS
Fibroblast growth factor receptor 1, sequence (P11362 whole entry): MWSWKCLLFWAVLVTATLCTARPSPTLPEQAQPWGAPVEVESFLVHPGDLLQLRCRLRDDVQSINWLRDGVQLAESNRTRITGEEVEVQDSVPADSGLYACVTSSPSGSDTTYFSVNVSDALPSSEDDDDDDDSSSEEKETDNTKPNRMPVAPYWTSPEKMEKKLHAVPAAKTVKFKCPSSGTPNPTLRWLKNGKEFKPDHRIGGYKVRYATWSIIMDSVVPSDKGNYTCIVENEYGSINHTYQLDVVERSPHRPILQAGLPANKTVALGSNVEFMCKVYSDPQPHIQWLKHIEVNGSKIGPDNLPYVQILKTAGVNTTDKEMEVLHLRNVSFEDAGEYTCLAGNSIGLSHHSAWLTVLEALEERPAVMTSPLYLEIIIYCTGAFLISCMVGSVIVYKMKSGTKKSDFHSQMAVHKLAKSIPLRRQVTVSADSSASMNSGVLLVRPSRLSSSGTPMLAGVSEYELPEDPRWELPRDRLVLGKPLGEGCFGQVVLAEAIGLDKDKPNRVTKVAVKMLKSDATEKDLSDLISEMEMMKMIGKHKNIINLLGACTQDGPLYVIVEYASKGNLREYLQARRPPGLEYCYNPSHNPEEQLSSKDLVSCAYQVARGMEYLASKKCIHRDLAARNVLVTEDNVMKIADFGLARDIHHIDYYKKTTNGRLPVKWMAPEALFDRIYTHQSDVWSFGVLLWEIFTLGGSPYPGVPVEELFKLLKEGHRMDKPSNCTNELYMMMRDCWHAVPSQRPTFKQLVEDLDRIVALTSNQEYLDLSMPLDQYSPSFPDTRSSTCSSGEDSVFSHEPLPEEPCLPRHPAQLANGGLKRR
Mitogen-activated protein kinase 8, sequence (P45983 whole entry): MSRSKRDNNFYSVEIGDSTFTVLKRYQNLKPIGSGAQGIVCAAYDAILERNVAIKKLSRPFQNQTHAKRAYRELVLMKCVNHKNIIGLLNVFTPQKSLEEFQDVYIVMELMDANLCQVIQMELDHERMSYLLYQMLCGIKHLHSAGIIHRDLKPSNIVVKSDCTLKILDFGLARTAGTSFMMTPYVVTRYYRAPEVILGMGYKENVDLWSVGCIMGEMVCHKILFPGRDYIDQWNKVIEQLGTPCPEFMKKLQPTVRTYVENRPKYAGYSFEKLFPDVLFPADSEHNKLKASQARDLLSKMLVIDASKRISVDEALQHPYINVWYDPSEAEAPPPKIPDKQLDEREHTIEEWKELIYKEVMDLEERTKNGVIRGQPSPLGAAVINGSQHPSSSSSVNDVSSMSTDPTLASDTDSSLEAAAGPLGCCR
Dual specificity tyrosine-phosphorylation-regulated kinase 1B, sequence (Q9Y463 whole entry): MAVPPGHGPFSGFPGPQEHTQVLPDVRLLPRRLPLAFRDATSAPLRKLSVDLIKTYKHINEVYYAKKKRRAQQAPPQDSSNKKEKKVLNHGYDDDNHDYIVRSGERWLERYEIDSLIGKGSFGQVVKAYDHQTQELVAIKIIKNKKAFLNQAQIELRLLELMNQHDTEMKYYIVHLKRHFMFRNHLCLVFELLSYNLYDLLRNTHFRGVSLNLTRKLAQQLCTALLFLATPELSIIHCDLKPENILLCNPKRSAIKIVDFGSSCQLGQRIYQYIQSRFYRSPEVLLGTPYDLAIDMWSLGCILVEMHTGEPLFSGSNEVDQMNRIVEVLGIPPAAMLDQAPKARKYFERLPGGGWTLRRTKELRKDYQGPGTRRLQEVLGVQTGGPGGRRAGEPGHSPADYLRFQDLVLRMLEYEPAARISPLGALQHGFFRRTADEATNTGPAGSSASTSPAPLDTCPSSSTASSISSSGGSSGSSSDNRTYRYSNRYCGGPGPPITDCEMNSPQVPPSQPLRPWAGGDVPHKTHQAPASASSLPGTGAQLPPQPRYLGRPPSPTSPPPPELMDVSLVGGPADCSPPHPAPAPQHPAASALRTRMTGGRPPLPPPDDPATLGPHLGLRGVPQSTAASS
High affinity nerve growth factor receptor, sequence (P04629 whole entry): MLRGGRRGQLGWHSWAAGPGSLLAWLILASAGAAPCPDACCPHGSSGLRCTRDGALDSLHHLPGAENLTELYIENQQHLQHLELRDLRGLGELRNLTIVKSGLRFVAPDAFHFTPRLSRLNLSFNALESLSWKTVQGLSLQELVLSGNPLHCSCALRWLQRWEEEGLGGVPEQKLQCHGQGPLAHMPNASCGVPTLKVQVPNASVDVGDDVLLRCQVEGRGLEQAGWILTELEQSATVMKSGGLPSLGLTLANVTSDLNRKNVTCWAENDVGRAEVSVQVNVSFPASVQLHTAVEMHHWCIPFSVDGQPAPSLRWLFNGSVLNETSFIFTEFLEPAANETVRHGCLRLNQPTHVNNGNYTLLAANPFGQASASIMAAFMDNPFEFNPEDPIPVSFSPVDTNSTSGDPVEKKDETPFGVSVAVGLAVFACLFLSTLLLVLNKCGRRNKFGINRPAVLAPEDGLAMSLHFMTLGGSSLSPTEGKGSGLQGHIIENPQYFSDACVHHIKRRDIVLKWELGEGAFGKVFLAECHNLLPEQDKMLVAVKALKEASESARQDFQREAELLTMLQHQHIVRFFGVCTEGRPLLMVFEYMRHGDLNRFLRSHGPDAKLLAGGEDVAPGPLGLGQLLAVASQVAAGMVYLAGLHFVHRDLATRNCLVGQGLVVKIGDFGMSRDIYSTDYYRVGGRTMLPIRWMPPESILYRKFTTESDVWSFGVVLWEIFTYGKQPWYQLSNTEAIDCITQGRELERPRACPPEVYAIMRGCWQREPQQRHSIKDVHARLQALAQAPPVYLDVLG
Cyclin-dependent kinase 19, sequence (Q9BWU1 whole entry): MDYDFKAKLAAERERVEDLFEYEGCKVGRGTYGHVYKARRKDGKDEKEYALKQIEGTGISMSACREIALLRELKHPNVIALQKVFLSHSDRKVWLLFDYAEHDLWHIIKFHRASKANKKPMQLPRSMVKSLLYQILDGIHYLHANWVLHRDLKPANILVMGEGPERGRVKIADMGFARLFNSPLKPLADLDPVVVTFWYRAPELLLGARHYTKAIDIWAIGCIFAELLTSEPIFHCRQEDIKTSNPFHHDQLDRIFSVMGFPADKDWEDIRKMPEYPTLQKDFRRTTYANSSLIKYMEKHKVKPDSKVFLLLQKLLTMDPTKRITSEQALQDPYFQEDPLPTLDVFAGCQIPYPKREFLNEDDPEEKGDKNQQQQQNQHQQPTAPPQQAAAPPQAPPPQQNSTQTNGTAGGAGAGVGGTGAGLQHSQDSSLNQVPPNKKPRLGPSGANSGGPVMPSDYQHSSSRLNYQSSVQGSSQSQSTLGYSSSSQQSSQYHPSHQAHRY

## CS(=O)(=O)c1cccc(-c2cnn3c(C(N)=O)cc(-c4ccccc4)nc23)c1
[1]
  Ki: 2000 nM (active)
[2]
  Ki: 3980 nM (active)
[3]
  Ki: > 100000 nM (inactive)
[4]
  Ki: 2000 nM (active)
[5]
  Ki: 3980 nM (active)
[6]
  Ki: 2510 nM (active)
[7]
  Ki: 1260 nM (active)
[8]
  Ki: 5010 nM (active)
[9]
  Ki: 2000 nM (active)
[10]
  Ki: 2510 nM (active)
